According to ChEMBL document CHEMBL1153288, “1,3,4-Oxadiazole substituted naphthyridines as HIV-1 integrase inhibitors. Part 2: SAR of the C5 position” (Bioorg Med Chem Lett, 2009):

Experiments:
[1] = Inhibition of recombinant HIV integrase strand transfer activity; design: species or system Human immunodeficiency virus
[2] = Therapeutic index, CC50 for human 293T cells to EC50 for G-pseudotyped HIV; format: cell-based; settings: read-out: Ratio CC50/EC50
[3] = tested on: Human immunodeficiency virus; assay: Antiviral activity against G-pseudotyped HIV expressed in 293T cells with pGI3Luci; format: functional, organism-based; settings: Human immunodeficiency virus 1, HEK-293T

Structure (SMILES) | IC50 [1] [nM] | selectivity ratio [2] | EC50 [3] [nM]
Cc1ccn(-c2nc(-c3nnc(Cc4ccc(F)cc4)o3)c(O)c3ncccc23)n1 | 21 | 23 | 380
Oc1c(-c2nnc(Cc3ccc(F)cc3)o2)nc(-c2cccnc2)c2cccnc12 | 11 | 194 | 36
Oc1c(-c2nnc(Cc3ccc(F)cc3)o2)nc(-c2ccccn2)c2cccnc12 | 30 | 40 | 56
CN1CCN(c2nc(-c3nnc(Cc4ccc(F)cc4)o3)c(O)c3ncccc23)C1=O | 15 | > 466 | 30
